Laboratory results as given in PubChem BioAssay (NCI).
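Assay format: 96-well plates, 48-hour exposure. At the TGI there is no net growth.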

Legend:
Assay in all cases: NCI-60 cell line screen, 48 h
[1] = test system: KM12 colon
[2] = test system: COLO 205 colon
[3] = test system: UACC-62 melanoma
[4] = test system: CAKI-1 renal
[5] = test system: DU-145 prostate
[6] = test system: SF-539 CNS
[7] = test system: NCI-H226 lung
[8] = test system: MCF7 breast
[9] = test system: OVCAR-8 ovarian
[10] = test system: MDA-MB-435
[11] = test system: HS 578T breast
[12] = test system: ACHN renal
[13] = test system: EKVX NSCLC
[14] = test system: OVCAR-5 ovarian
[15] = test system: CCRF-CEM leukemia
[16] = test system: SK-MEL-28 melanoma
[17] = test system: IGROV1 ovarian
[18] = test system: HCT-15 colon
[19] = test system: NCI/ADR-RES ovarian
[20] = test system: LOX IMVI melanoma

Structure (SMILES)	TGI [1] [µM]	TGI [2] [µM]	TGI [3] [µM]	TGI [4] [µM]	TGI [5] [µM]	TGI [6] [µM]	TGI [7] [µM]	TGI [8] [µM]	TGI [9] [µM]	TGI [10] [µM]	TGI [11] [µM]	TGI [12] [µM]	TGI [13] [µM]	TGI [14] [µM]	TGI [15] [µM]	TGI [16] [µM]	TGI [17] [µM]	TGI [18] [µM]	TGI [19] [µM]	TGI [20] [µM]
O=c1[nH][nH]c(=O)c2c1ccc1oc3ccccc3c12	> 100	> 100	> 100	> 100	> 100	> 100	> 100	> 100	> 100	> 100	> 100	> 100	> 100	> 100	> 100	> 100	> 100			
Cc1sc2nc3n(c(=O)c2c1C)N=CN(c1ccc(Cl)cc1)C3	> 100	> 100	> 100	> 100	> 100		> 100		> 100	> 100		> 100	> 100	> 100	> 100	> 100	> 100	> 100	> 100	> 100
CN1CCc2ccccc2C(C(=O)c2ccc3c(c2)OCO3)C1=O (stereo not drawn)	> 100	> 100	> 100	> 100			> 100		> 100			> 100			> 100	> 100	> 100	> 100		> 100
CCOC(=O)C1=C(OC(OCC)C(CC)[Se]c2ccccc2)CCC1 (stereo not drawn)	> 100	> 100	81.1	> 100		37.4	53.5		> 100			> 100	91.2	69.6	36.2	92.8	> 100	42.9		20.5
COC(=O)/C=C(\C)CCC1SC1(C)C (stereo not drawn)	> 100	> 100	> 100	> 100		> 100	> 100		> 100			> 100	> 100	> 100	> 100	> 100	> 100	> 100		> 100
COc1ccc2[nH]c3c(c2c1)[C@H]1CCC(C(C)(C)C)C[C@H]1[C@H]1C(=O)N(c2ccccc2)C(=O)[C@@H]31 (stereo partly drawn)	> 100	> 79.2	> 100	> 36.6		18.1	81.9		28.1			18.4	> 100	> 100	> 52	> 100	> 100	> 100		> 100
O=C(NCCN1CCCCC1)c1cccc(I)c1	> 100		> 100	> 100		> 100	> 100	> 100	> 100		> 100	> 100	> 100	> 100	> 100	> 100	> 100	> 100	> 100	> 100
